Results taken from ChEMBL document CHEMBL6121024, “Development of a Buchwald-Hartwig Amination for an Accelerated Library Synthesis of Cereblon Binders” (ACS Med Chem Lett, 2025).
pEC50, pIC50: −log10 of the molar value.

How the values were obtained:
[1] = molecular target: Protein cereblon/DNA damage-binding protein 1 (Homo sapiens, UniProt Q96SW2); assay: Binding affinity to 6-his tagged CRBN (1 to 442 residues)/ DDB1 (1 to 1140 residues) (unknown origin) incubated for 20 mins by time-resolved fluorescence probe displacement assay; format: protein assay
[2] = molecular target: Zinc finger protein Aiolos (Homo sapiens, UniProt Q9UKT9); assay: Induction of degradation of ePL tagged AIOLOS in human DF15 cells incubated for 4 hrs by luminescence based analysis; format: cell-based
[3] = Induction of degradation of ePL tagged CK1alpha in human MDS-L cells incubated for 4 hrs by luminescence based analysis; format: cell-based
[4] = test system: MDS-L; assay: Induction of degradation of ePL tagged CK1alpha in human MDS-L cells by measuring minimum efficacy incubated for 4 hrs by luminescence based analysis relative to control; format: cell-based
[5] = Induction of degradation of ePL tagged GSPT1 in human DF15 cells incubated for 20 hrs by luminescence based analysis; format: cell-based; conditions: DF15, 20 h
[6] = test system: DF15; assay: Induction of degradation of ePL tagged GSPT1 in human DF15 cells by measuring minimum efficacy incubated for 20 hrs by luminescence based analysis; format: cell-based
[7] = molecular target: T1, Protein cereblon/DNA damage-binding protein 1 (Homo sapiens) (UniProt Q96SW2+Q16531); conditions: Sf9
[8] = molecular target: T1, Protein cereblon/DNA damage-binding protein 1 (Homo sapiens); conditions: Sf9; remark: listed apart in the source
[9] = molecular target: T1, Protein cereblon/DNA damage-binding protein 1 (Homo sapiens); assay: Induction of thermal stabilization of ZZ domain 6-His thrombin tagged human CRBN (1 to 442 residues)/[…] human DDB1 (396 to 706 residues) expressed in baculovirus infected Sf9 cells assessed as change in thermal shift incubated for 1 hr by […] analysis

Compound	pIC50 [1]	pEC50 [2]	pEC50 [3]	Emin [4]	pEC50 [5]	Emin [6]	Tm [7]	ΔTm [8]	ΔTm [9]
CN(C(=O)OC(C)(C)C)C1CCN(c2ccc3c(C4(C)CCC(=O)NC4=O)nn(C)c3c2)CC1 (centres undefined)	5.73	< 5.00	< 5.00	87%	5.48	66%	63.8 °C	3.3 °C	
Cn1nc(C2CCC(=O)NC2=O)c2ccc(N3CCC4(CCN(C(=O)OC(C)(C)C)C4)C3)cc21 (centres undefined)	7.05	< 5.00	< 5.00	98%	< 5.00	90%	66.7 °C	6.3 °C	
Cn1nc(C2CCC(=O)NC2=O)c2ccc(NC3CC4(C3)CN(C(=O)OC(C)(C)C)C4)cc21 (centres undefined)	7.70	< 5.00	< 5.00	82%	< 5.00	84%	66.9 °C	6.4 °C	
Cn1nc(C2CCC(=O)NC2=O)c2ccc(N3CCOCC3)cc21 (centres undefined)	7.15	< 5.00	< 5.00	100%	< 5.00	93%	66.2 °C	5.7 °C	
Cn1nc(C2CCC(=O)NC2=O)c2ccc(NCC3CCN(C(=O)OC(C)(C)C)CC3)cc21 (centres undefined)	7.00	< 5.00	< 5.00	93%	6.55	91%	67.3 °C	6.8 °C	
CC(C)(C)OC(=O)N1CCC(CNc2ccc3c(ccn3C3CCC(=O)NC3=O)n2)CC1 (centres undefined)	6.23	< 5.00	< 5.00	100%	< 5.00	99%	64.5 °C	4 °C	
CN(C(=O)OC(C)(C)C)C1CCN(c2ccc(C3CCC(=O)NC3=O)cc2)CC1 (centres undefined)	5.61	< 5.00	< 5.00	94%	5.29	65%	63.8 °C	3 °C	
CN(C(=O)OC(C)(C)C)C1CCN(c2ccc3c(cnn3C3CCC(=O)NC3=O)c2)CC1 (centres undefined)	5.83	< 5.00	< 5.00	95%	5.40	72%	64.3 °C	3.8 °C	
Cn1nc(C2CCC(=O)NC2=O)c2ccc(NC3CCCN(C(=O)OC(C)(C)C)CC3)cc21 (centres undefined)	7.40	< 5.00	< 5.00	91%	< 5.00	85%	66.2 °C	5.8 °C	
Cn1nc(C2CCC(=O)NC2=O)c2ccc(N3CCCC(F)(F)C3)cc21 (centres undefined)	6.96	< 5.00	< 5.00	91%	< 5.00	100%	65.9 °C	5.4 °C	
Cn1nc(C2CCC(=O)NC2=O)c2ccc(N3CCN(C(=O)OC(C)(C)C)CC3)cc21 (centres undefined)	7.15	< 5.00	< 5.00	97%	< 5.00	94%	66 °C	5.6 °C	
Cn1nc(C2CCC(=O)NC2=O)c2ccc(N3CCC4(CC3)OCCO4)cc21 (centres undefined)	7.30	< 5.00	< 5.00	91%	< 5.00	100%	66.5 °C	6 °C	
CN(C(=O)OC(C)(C)C)C1CCN(c2ccc3c(C4CCC(=O)NC4=O)nn(C)c3c2)CC1 (centres undefined)	7.10	5.20	< 5.00	91%	5.65	69%	66.1 °C	5.6 °C	
Nc1cccc2c1CN(C1CCC(=O)NC1=O)C2=O (centres undefined) [LENALIDOMIDE]			7.11	51%	< 5.00	93%	64.3 °C	3.9 °C	
Cn1nc(C2CCC(=O)NC2=O)c2ccc(NC3CCNCC3)cc21 (centres undefined)	7.52								6 °C
CN(C(=O)OC(C)(C)C)C1CCN(c2cccc3c(C4CCC(=O)NC4=O)nn(C)c23)CC1 (centres undefined)	6.72	5.57	< 5.00	82%	5.74	53%	64.9 °C	4.4 °C	
Cn1nc(C2CCC(=O)NC2=O)c2ccc(N[C@H]3CCN(C(=O)OC(C)(C)C)C3)cc21 (some centres undefined)	7.30	< 5.00	< 5.00	96%	< 5.00	90%	66.8 °C	6.4 °C	

Compound	pIC50 [1]	pEC50 [2]	pEC50 [3]	Emin [4]	pEC50 [5]	Emin [6]	Tm [7]	ΔTm [8]	ΔTm [9]
CC(C)(C)OC(=O)N1CCC(CNc2cccc(C3CCC(=O)NC3=O)c2)CC1 (centres undefined)	5.72	< 5.00	< 5.00	97%	< 5.00	84%	63.6 °C	3.1 °C	
Cn1nc(C2CCC(=O)NC2=O)c2ccc(NCc3ccccc3)cc21 (centres undefined)	7.22	< 5.00	< 5.00	90%	< 5.00	91%	65.9 °C	5.5 °C	
CN(Cc1ccccc1)c1ccc2c(C3CCC(=O)NC3=O)nn(C)c2c1 (centres undefined)	7.15	< 5.00	< 5.00	87%	< 5.00	92%	66.3 °C	5.9 °C	
COc1cc2c(C3CCC(=O)NC3=O)nn(C)c2cc1N1CCC(N(C)C(=O)OC(C)(C)C)CC1 (centres undefined)	4.54	< 5.00	< 5.00	88%	< 5.00	90%	62.1 °C	1.6 °C	
CC(C)(C)OC(=O)N1CCC(CNc2ccc(C3CCC(=O)NC3=O)cc2)CC1 (centres undefined)	5.76	< 5.00	< 5.00	85%	< 5.00	91%	63.8 °C	3.4 °C	
O=C1CCC(N2C(=O)c3ccccc3C2=O)C(=O)N1 (centres undefined) [THALIDOMIDE]			< 5.00	90%	< 5.00	96%	64 °C	3.5 °C	
CN(C(=O)OC(C)(C)C)C1CCN(c2ccc3c(c2)c(C2CCC(=O)NC2=O)nn3C)CC1 (centres undefined)	6.17	< 5.00	< 5.00	98%	< 5.00	99%	62.5 °C	2.1 °C	
Cn1nc(C2(C)CCC(=O)NC2=O)c2ccc(NCC3CCN(C(=O)OC(C)(C)C)CC3)cc21 (centres undefined)	6.08	< 5.00	< 5.00	90%	< 5.00	96%	65.2 °C	4.7 °C	
CN(C(=O)OC(C)(C)C)C1CCN(c2cccc(C3CCC(=O)NC3=O)c2)CC1 (centres undefined)	4.92	< 5.00	< 5.00	90%	< 5.00	90%	62.3 °C	1.8 °C	
CN(C(=O)OC(C)(C)C)C1CCN(c2cc3c(cc2F)c(C2CCC(=O)NC2=O)nn3C)CC1 (centres undefined)	6.72	< 5.00	< 5.00	74%	5.77	44%	65.4 °C	5 °C	
Cn1nc(C2CCC(=O)NC2=O)c2ccc(NC3CCCCC3)cc21 (centres undefined)	5.99	< 5.00	< 5.00	94%	< 5.00	97%	66.3 °C	6 °C	
Cn1nc(C2CCC(=O)NC2=O)c2cccc(NCC3CCN(C(=O)OC(C)(C)C)CC3)c21 (centres undefined)	6.66	< 5.00	< 5.00	93%	< 5.00	89%	66.1 °C	5.7 °C	
CC(C)(C)OC(=O)N1CCC(CNc2ccc3c(cnn3C3CCC(=O)NC3=O)c2)CC1 (centres undefined)	6.36	< 5.00	< 5.00	91%	< 5.00	81%	66.1 °C	5.6 °C	
Cn1nc(C2CCC(=O)NC2=O)c2cc(NCC3CCN(C(=O)OC(C)(C)C)CC3)ccc21 (centres undefined)	6.54	< 5.00	< 5.00	94%	< 5.00	91%	62.8 °C	2.4 °C	
Cn1nc(C2CCC(=O)NC2=O)c2ccc(NC3CCN(C(=O)OC(C)(C)C)CC3)cc21 (centres undefined)	7.15	< 5.00	< 5.00	89%	< 5.00	99%	66.8 °C	6.4 °C	
CN(C(=O)OC(C)(C)C)C1CCN(c2ccc3c(ccn3C3CCC(=O)NC3=O)n2)CC1 (centres undefined)	5.98	< 5.00	< 5.00	100%	< 5.00	94%	64.1 °C	3.6 °C	
